The experiment concerns the target wild-type (WT) FKBP12 (in iRC9) (Homo sapiens, UniProt P62942). Put plainly: Cross-activation of iRC9 apoptosis by high rimiducid in transfected HEK293 cells. It counts as cell-based.

wild-type (WT) FKBP12 (in iRC9), sequence (P62942 2-108): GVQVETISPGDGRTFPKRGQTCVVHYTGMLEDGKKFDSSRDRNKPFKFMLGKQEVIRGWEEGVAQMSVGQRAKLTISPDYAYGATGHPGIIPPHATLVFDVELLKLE

As to `CC[C@H](C(=O)N1CCCC[C@H]1C(=O)O[C@H](CCc1ccc(OC)c(OC)c1)c1cccc(OCC(=O)NCCNC(=O)COc2cccc([C@@H](CCc3ccc(OC)c(OC)c3)OC(=O)[C@@H]3CCCCN3C(=O)[C@@H](CC)c3cc(OC)c(OC)c(OC)c3)c2)c1)c1cc(OC)c(OC)c(OC)c1` [Rim, rimiducid], the “Cross-activation of iRC9 apoptosis by high rimiducid in transfected HEK293 cells” value was over 100 nM.

The values are drawn from publication PMC6357218 (Molecular Therapy Oncolytics, 2018).
